Measured values as given in article PMC1247661 (Environmental Health Perspectives, 2004).

What was measured:
[1] = 13 weeks; mean ±SD of 10 rats; TCDD 100, PeCDF 200, PCB126 1,000 ng/kg/day, PCB153 1,000 μg/kg/day; ref NTP 2004a, 2004b, 2004c; cited from earlier work
liver [2] = conditions: 13 weeks, ref NTP 2004a, 2004b, 2004c, cited from earlier work; for Liver hypertrophy, incidence (number of rats of 10): TCDD 100, PeCDF 200, PCB126 1,000 ng/kg/day, PCB153 1,000 μg/kg/day; for Liver hypertrophy, severity in words: highest dose of each compound; for Liver hypertrophy, mean severity score: 1, minimal, 2, mild, 3, moderate, 4, marked
hepatic gene expression [3] = conditions: liver, 13 weeks; average (± 1 SD) of three GeneChips
hepatic gene expression [4] = test: Real-time RT-PCR of hepatic mRNA after 13-week exposure: TCDD 100, PeCDF 200, PCB126 1,000 ng/kg/day, PCB153 1,000 μg/kg/day; assay type: in vivo, female Harlan Sprague-Dawley rats; conditions: liver, 13 weeks; average (± 1 SD) of three RNA pools; normalized to 18S RNA
Protocol: Tissues for this study were provided by the NTP ([NTP 2004a], [2004b], [2004c]) as part of a 2-year bioassay for relative carcinogenic potencies of dioxin-like chemicals. […] Toxicologic dose equivalence was based on the current World Health Organization TEF recommendations ([Van den Berg et al. 1998]). Subgroups of rats were sacrificed at 14, 31, and 53 weeks (corresponding to 13, 30, or 52 weeks of exposure), and target organs were removed, flash frozen in liquid nitrogen, and stored at −70°C for mechanistic studies.
Frozen hepatic tissue was disrupted by homogenization with a rotor stator homogenizer, and total RNA was isolated with Qiagen RNeasy columns Qiagen Inc., Valencia, CA). There were a total of six rats in each exposure group. Three pools of RNA were created from each exposure group (n = 2 rats per pool), similar to the experimental design of [Yechoor et al. (2002)]. Pooled total RNA was further purified using the Qiagen poly(A) RNA isolation kit. RNA integrity was assessed by the Agilent Bioanalyzer 2100 (Agilent Technologies, Palo Alto, CA). […] Poly(A) RNA was transformed into labeled cRNA by the Roswell Park Cancer Institute Microarray and Genomics Core Facility (Buffalo, NY). cRNA from each pool was fragmented and its quality evaluated with Affymetrix GeneChip Test3 arrays (Santa Clara, CA) by comparing 3′:5′ signal ratios of housekeeping genes. High-quality cRNA (3′:5′ signal ratio near 1) was subsequently hybridized to Affymetrix RGU34A GeneChips, and chips were scanned with the Affymetrix 428 scanner.
Reverse transcriptase reactions (80 μL) contained 20 μg total RNA, 0.5 mM dNTP mix, and 15 ng/μL random primers, 1 × first-strand buffer, 10 mM dithiothreitol, 27 U Rnasin RNase inhibitor (Promega, Madison, WI), and 800 U superscript reverse transcriptase (Invitrogen). A mixture containing total RNA, dNTPs, and random primers was heated to 65°C for 5 min to denature the RNA and then immediately placed on ice. The remaining components of the reaction mixture were then added to the RNA, and cDNA synthesis was performed at 42°C for 60 min. Reactions were terminated by heating to 70°C for 10 min.
PCR primers were selected from GenBank database sequences with Primer3 software ([Rozen and Skaletsky 2000]). […] Nonspecific mispriming was managed by a mispriming threshold of 10.0 in the rodent mispriming library.
Real-time PCR was performed with the SYBR Green PCR kit from Applied Biosystems (Foster City, CA) according to the manufacturer’s instructions. PCR reactions (25 μL) contained diluted cDNA, 1 × SYBR Green buffer, 3 mM MgCl2, 0.2 mM dNTP mix, 0.2 μM left and right primers, 10 nM fluorescein, and 1.1 U of Amplitaq Gold polymerase. The reaction was initiated by incubation at 95°C for 10 min and followed by 40 cycles of denaturation at 95°C for 15 sec and primer annealing/extension at 60°C for 1 min. Sample fluorescence was evaluated during the annealing/extension step. Upon completion of thermocycling, the specificity of each reaction was evaluated by melting analysis. Samples were heated to 95°C for 2 min and cooled to 55°C. The temperature was maintained at 55°C for 15 sec to analyze sample fluorescence, and the temperature was increased by increments of 0.5°C followed by 15 sec of fluorescence analysis for a total of 80 cycles.
The efficiency of each primer set was validated over a range of cDNA concentrations. […] After primer validation, PCR reactions were performed with a single cDNA concentration, and the threshold cycle (Ct) was determined for each reaction. The difference (ΔCt) between the threshold cycle for the target gene and endogenous control gene (18S RNA) was calculated for each sample, and the 18S normalized relative expression of each gene was calculated by the comparative method according to the Applied Biosystems’ User Bulletin No. 2 for the ABI Prism Sequence Detection System (Applied Biosystems), as described by [Imasato et al. (2002)].

liver [5] = conditions: TCDD 100, PeCDF 200, PCB126 1,000 ng/kg/day, ref NTP 2004a, 2004b, 2004c; cited from earlier work
[6] = same doses, 1, minimal to 4, marked

## Clc1cc2oc3c(Cl)c(Cl)c(Cl)cc3c2cc1Cl [PeCDF, 2,3,4,7,8-pentachlorodibenzofuran]
[1]
  Liver levels: 132.9 ± 47.4 ng/g
Liver [2]; same doses
  Multinucleated hepatocytes, incidence (number of rats of 10): 0
Hepatic gene expression [3]
  C-CAM4 mRNA, average change vs vehicle, Microarray: 37.4 (25.5 to 49.3)
  CAP2 mRNA, average change vs vehicle, Microarray: 10.9 (4 to 17.8)
  CES3 mRNA, average change vs vehicle, Microarray: −2.8 (−3.8 to −1.8)
  CYP1B1 mRNA, average change vs vehicle, Microarray: 493.3 (310.1 to 676.5)
  CYP3A9 mRNA, average change vs vehicle, Microarray: −2.3 (−3.3 to −1.3)
  SERPIN7A mRNA, average change vs vehicle, Microarray: −2.7 (−3.6 to −1.8)
  SST mRNA, average change vs vehicle, Microarray: −8.3 (−11.1 to −5.5)
Hepatic gene expression [4]
  C-CAM4 mRNA, average change vs vehicle, RT-PCR: 2.5 (2.3 to 2.7)
  CAP2 mRNA, average change vs vehicle, RT-PCR: 20.2 (17.8 to 22.9)
  CYP1B1 mRNA, average change vs vehicle, RT-PCR: 59.7 (48.3 to 73.8)
  CYP3A9 mRNA, average change vs vehicle, RT-PCR: −4.2 (−5 to −3.5)
  SERPIN7A mRNA, average change vs vehicle, RT-PCR: −29.9 (−32 to −27.9)
  SST mRNA, average change vs vehicle, RT-PCR: −1.6 (−2 to −1.2)

## Clc1ccc(-c2cc(Cl)c(Cl)c(Cl)c2)cc1Cl [PCB126, 3,3′,4,4′,5-pentachlorobiphenyl]
Liver [5]
  liver findings after 2 years of exposure: cholangiocarcinoma, hepatocellular adenoma, toxic hepatopathy, multinucleated hepatocytes, diffuse fatty change, and liver pigmentation
[1]
  Liver levels: 412.6 ± 73.5 ng/g
Liver [2]
  Liver hypertrophy, incidence (number of rats of 10): 10
  Liver hypertrophy, severity in words: minimal to mild
Liver [2]; same doses
  Liver hypertrophy, mean severity score: 1.7
  Diffuse fatty change, incidence (number of rats of 10): 0
  Multinucleated hepatocytes, incidence (number of rats of 10): 0
  Pigmentation, incidence (number of rats of 10): 0
Hepatic gene expression [3]
  C-CAM4 mRNA, average change vs vehicle, Microarray: 25.1 (4 to 46.2)
  CAP2 mRNA, average change vs vehicle, Microarray: 7.6 (2 to 13.2)
  CES3 mRNA, average change vs vehicle, Microarray: −4 (−4.4 to −3.6)
  CYP1B1 mRNA, average change vs vehicle, Microarray: 317.1 (41.1 to 593.1)
  SERPIN7A mRNA, average change vs vehicle, Microarray: −4 (−4.9 to −3.1)
  SST mRNA, average change vs vehicle, Microarray: −6.4 (−9.4 to −3.4)
Hepatic gene expression [4]
  C-CAM4 mRNA, average change vs vehicle, RT-PCR: 3.5 (2.6 to 4.7)
  CAP2 mRNA, average change vs vehicle, RT-PCR: 119.4 (104 to 137.2)
  CES3 mRNA, average change vs vehicle, RT-PCR: −1.4 (−1.5 to −1.3)
  CYP1B1 mRNA, average change vs vehicle, RT-PCR: 106.4 (98.2 to 115.3)
  CYP3A9 mRNA, average change vs vehicle, RT-PCR: −28.5 (−30.2 to −26.9)
  SERPIN7A mRNA, average change vs vehicle, RT-PCR: −8.4 (−12 to −5.9)
  SST mRNA, average change vs vehicle, RT-PCR: −1.5 (−1.6 to −1.4)

## Clc1cc(Cl)c(-c2cc(Cl)c(Cl)cc2Cl)cc1Cl [PCB153, 2,2′,4,4′,5,5′-hexachlorobiphenyl]
[1]
  Liver levels: 9,250 ± 2,061 ng/g
Liver [2]
  Liver hypertrophy, incidence (number of rats of 10): 9
  Liver hypertrophy, severity in words: minimal
Liver [2]; same doses
  Liver hypertrophy, mean severity score: 1.2
  Diffuse fatty change, incidence (number of rats of 10): 0
  Multinucleated hepatocytes, incidence (number of rats of 10): 0
  Pigmentation, incidence (number of rats of 10): 0
Hepatic gene expression [3]
  CES3 mRNA, average change vs vehicle, Microarray: 1.3 (1 to 1.6)
  CYP1B1 mRNA, average change vs vehicle, Microarray: 2.1 (1 to 3.2)
  CYP3A9 mRNA, average change vs vehicle, Microarray: 1.6 (0.8 to 2.4)
  SERPIN7A mRNA, average change vs vehicle, Microarray: 1.6 (1.3 to 1.9)
  SST mRNA, average change vs vehicle, Microarray: −9.5 (−10.1 to −8.9)
Hepatic gene expression [4]
  C-CAM4 mRNA, average change vs vehicle, RT-PCR: −1.1 (−1.3 to 1)
  CAP2 mRNA, average change vs vehicle, RT-PCR: −1.3 (−1.5 to −1.1)
  CES3 mRNA, average change vs vehicle, RT-PCR: 2.4 (2.1 to 2.6)
  CYP1B1 mRNA, average change vs vehicle, RT-PCR: −1.2 (−1.6 to 1)
  CYP3A9 mRNA, average change vs vehicle, RT-PCR: −1.8 (−2.1 to −1.5)
  SERPIN7A mRNA, average change vs vehicle, RT-PCR: −1.2 (−1.5 to 1)
  SST mRNA, average change vs vehicle, RT-PCR: −3 (−3.5 to −2.5)

## Clc1cc2c(cc1Cl)Oc1cc(Cl)c(Cl)cc1O2 [TCDD, 2,3,7,8-tetrachlorodibenzo-p-dioxin]
Liver [5]
  liver findings after 2 years of exposure: cholangiocarcinoma, hepatocellular adenoma, toxic hepatopathy, multinucleated hepatocytes, diffuse fatty change, and liver pigmentation
[1]
  Liver levels: 18.3 ± 0.8 ng/g
Liver [2]
  Liver hypertrophy, incidence (number of rats of 10): 10
  Liver hypertrophy, severity in words: mild to moderate
Liver [2]; [6]
  Diffuse fatty change, mean severity score: 1.0
  Multinucleated hepatocytes, mean severity score: 1.0
Liver [2]; same doses
  Liver hypertrophy, mean severity score: 2.3
  Diffuse fatty change, incidence (number of rats of 10): 2
  Multinucleated hepatocytes, incidence (number of rats of 10): 3
  Pigmentation, incidence (number of rats of 10): 0
Hepatic gene expression [3]
  C-CAM4 mRNA, average change vs vehicle, Microarray: 133.4 (112.1 to 154.7)
  CAP2 mRNA, average change vs vehicle, Microarray: 53.6 (31.1 to 76.1)
  CES3 mRNA, average change vs vehicle, Microarray: −8.1 (−9.9 to −6.3)
  CYP1B1 mRNA, average change vs vehicle, Microarray: 676.3 (470.8 to 881.8)
  CYP3A9 mRNA, average change vs vehicle, Microarray: −35.4 (−53.4 to −17.4)
  SERPIN7A mRNA, average change vs vehicle, Microarray: −11.5 (−17.2 to −5.8)
  SST mRNA, average change vs vehicle, Microarray: −8 (−10.5 to −5.5)
Hepatic gene expression [4]
  C-CAM4 mRNA, average change vs vehicle, RT-PCR: 4.1 (3.8 to 4.4)
  CAP2 mRNA, average change vs vehicle, RT-PCR: 168.9 (147.9 to 192.9)
  CES3 mRNA, average change vs vehicle, RT-PCR: −4.8 (−5.2 to −4.4)
  CYP1B1 mRNA, average change vs vehicle, RT-PCR: 256 (236.3 to 277.3)
  CYP3A9 mRNA, average change vs vehicle, RT-PCR: −1024 (−1201.8 to −872.5)
  SERPIN7A mRNA, average change vs vehicle, RT-PCR: −26.6 (−30.2 to −23.4)
  SST mRNA, average change vs vehicle, RT-PCR: −36.8 (−46.4 to −29.1)
